Data from patent US20260297042A1, “BIARYLAMIDE DERIVATIVES AND THEIR USE AS PKMYT1 INHIBITORS” (CANCER RESEARCH TECHNOLOGY LIMITED, priority 2023, published 2026).

How the values were obtained:
WEE1 = molecular target: T1, WEE1 (Homo sapiens, UniProt P30291); test: Selectivity versus WEE1 assay (ADP-Glo enzymatic assay); format: biochemical; details: banded
T1 construct: purchased Thermo Fisher PR7373A
How it was run: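 15 nM WEE1, 30 µM ATP, 50 mM HEPES pH 7.5, 10 mM MgCl2, 1 mM EGTA, 0.01% Brij-35, 1% DMSO; 60 min, 26° C; ADP-Glo luminescence; IC50 from curve fit, replicates within 3-fold, r2 >0.9.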

OVCAR3 cells = test: Cancer cell line proliferation assay, nuclear count, OVCAR3 (CCNE1-amplified); format: cell-based; details: banded
Protocol: (§1) h-TERT-RPE1 TP53−/− and CCNE1 high expressing clones (clone cell lines 7 and 15) were treated with test compounds dissolved in DMSO at serially diluted concentrations alongside a DMSO only control for around 6 population doublings time. Cells were then fixed with 4% Paraformaldehyde and the cell nuclei were stained with DAPI (Sigma D9542). Images covering each well were acquired by an Opera Phenix® High-Content Screening System (PerkinElmer). Image analysis was performed using Harmony® high-content analysis software (PerkinElmer). Data analysis was performed using Microsoft Excel® and GI50 estimates generated with GraphPad Prism v9. Percent nuclear count was compared to vehicle control wells and used to measure inhibition of proliferation.
(§2) Cancer cell lines with either normal (KYSE-30) or amplified CCNE1 expression (OVCAR3-ovarian cancer) were evaluated for their sensitivity to PKMYT1 inhibitors in a nuclear count assay as described above for h-TERT-RPE1 TP53−/− and a CCNE1 high expressing clones, taking into account the slower cell cycle division times of these lines.

KYSE-30 cells [1] = test: Cancer cell line proliferation assay, nuclear count, KYSE-30 (normal CCNE1); format: cell-based; details: Homo sapiens, normal CCNE1 expression, banded, read-out: KYSE30 GI50
Protocol: as §1, §2

OVCAR 3 cells = test: Cancer cell line proliferation assay, ATP-based cell viability (Cell Titre Glow), OVCAR 3 (CCNE1-amplified); details: KYSE30 (normal CCNE1) GI50 vs. OVCAR 3 (CCNE1-amplified) GI50
How it was run: (§3)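 GI50 values, the concentrations halving cell growth, were derived from ATP-based luminescence (Cell Titre Glo) after PKMYT1 inhibitor exposure. Cells tested were OVCAR 3, an ovarian line with amplified CCNE1, and KYSE-30, which has normal CCNE1.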

KYSE-30 cells [2] = test: Cancer cell line proliferation assay, ATP-based cell viability (Cell Titre Glow), KYSE-30 (normal CCNE1); details: Homo sapiens, KYSE-30 cells (normal CCNE1), concentration that achieves 50% cell growth proliferation inhibition, read-out: KYSE30 Gl50
How it was run: as §3

[3] = molecular target: T2, Cellular PKMYT1 Biomarker CDK1 pT14 (Homo sapiens, UniProt Q99640); test: Inhibition of cellular PKMYT1 biomarker CDK1 pT14 in OVCAR 3 cells (immunoblot); format: cell-based; details: 20 hours incubation
T2 construct: read-out CDK1 phospho-T14 immunoblot
T2 sequence (Q99640 1-499): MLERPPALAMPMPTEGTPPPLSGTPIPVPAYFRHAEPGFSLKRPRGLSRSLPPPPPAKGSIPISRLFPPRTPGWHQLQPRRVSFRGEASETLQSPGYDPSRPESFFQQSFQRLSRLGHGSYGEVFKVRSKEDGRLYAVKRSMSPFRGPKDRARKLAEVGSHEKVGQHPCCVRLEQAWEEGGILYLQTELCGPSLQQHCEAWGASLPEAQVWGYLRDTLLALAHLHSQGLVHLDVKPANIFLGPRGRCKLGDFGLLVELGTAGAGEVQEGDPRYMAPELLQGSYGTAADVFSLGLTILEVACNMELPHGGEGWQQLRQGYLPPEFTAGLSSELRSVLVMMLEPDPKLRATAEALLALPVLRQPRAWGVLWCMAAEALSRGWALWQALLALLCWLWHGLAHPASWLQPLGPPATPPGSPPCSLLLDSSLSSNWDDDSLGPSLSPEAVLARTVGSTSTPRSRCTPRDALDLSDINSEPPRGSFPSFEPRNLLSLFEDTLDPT
How it was run: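 Confluent OVCAR 3 cells treated with a compound concentration range for 20 h at 37 °C. Lysates analysed by automated capillary immunoblot for CDK1 phospho-T14, with vinculin, fluorescence detection; IC50 by regression.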

T1 sequence (P30291 whole entry): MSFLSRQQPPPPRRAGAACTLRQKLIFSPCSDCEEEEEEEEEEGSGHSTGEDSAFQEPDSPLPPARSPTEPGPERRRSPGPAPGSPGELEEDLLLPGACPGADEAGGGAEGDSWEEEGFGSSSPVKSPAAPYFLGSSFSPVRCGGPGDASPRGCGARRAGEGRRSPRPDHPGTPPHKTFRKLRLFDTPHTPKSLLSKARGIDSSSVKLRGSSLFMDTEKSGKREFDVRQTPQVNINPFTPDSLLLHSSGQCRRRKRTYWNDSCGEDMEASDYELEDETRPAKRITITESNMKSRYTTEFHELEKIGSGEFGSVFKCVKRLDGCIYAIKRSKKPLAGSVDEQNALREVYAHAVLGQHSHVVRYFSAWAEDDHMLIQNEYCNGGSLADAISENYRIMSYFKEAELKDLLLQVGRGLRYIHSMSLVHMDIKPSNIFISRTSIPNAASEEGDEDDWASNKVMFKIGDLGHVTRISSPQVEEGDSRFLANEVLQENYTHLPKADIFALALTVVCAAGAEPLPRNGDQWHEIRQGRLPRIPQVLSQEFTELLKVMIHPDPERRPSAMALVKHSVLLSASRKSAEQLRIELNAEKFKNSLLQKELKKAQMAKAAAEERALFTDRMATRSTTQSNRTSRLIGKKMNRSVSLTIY

CCN(CC)C(=O)Cn1cc(C)c(Nc2ncc(C(=O)Nc3c(C)ccc(O)c3C)s2)n1 [BAA-207, 2-[[1-[2-(diethylamino)-2-oxo-ethyl]-4-methyl-pyrazol-3-yl]amino]-N-(3-hydroxy-2,6-dimethyl-phenyl)thiazole-5-carboxamide]
IC50 (WEE1; ADP-Glo, 15 nM WEE1, 60 minutes at 26° C.): 1 to 11 µM | PKMYT1 vs. WEE1 selectivity (WEE1; fold difference in selectivity for PKMYT1 over WEE1, ">N" = at least in this band but could be higher): X (100-<1000 fold) | Selectivity ratio KYSE30 GI50 vs. OVCAR3 GI50 (OVCAR3 cells; GI50 ratio KYSE30 vs. OVCAR3, >N = at least in this band): Z (>30 fold) | GI50 (OVCAR3 cells; Homo sapiens, OVCAR-3, CCNE1-amplified ovarian cancer, nuclear count): < 500 nM | GI50 (KYSE-30 cells [1]): 3 to 10 µM | Selectivity ratio KYSE30 Gl50 vs. OVCAR3 Gl50 (OVCAR 3 cells): Y (>20 fold) | GI50 (KYSE-30 cells [2]): > 5 µM | IC50 [3]: < 100 nM
